Here are results for 22 compounds from patent publication US20250179040A1, “HISTAMINE H3 RECEPTOR ANTAGONISTS AND THEIR PHARMACEUTICAL USES” (HANGZHOU BIO-SINCERITY PHARMA-TECH CO., LTD., priority 2022, published 2025).

SMILES strings stand for the structures.

One data set addresses hERG channel (Homo sapiens, UniProt Q12809). Briefly: in vitro. As to conditions: Average inhibition rate (%) on hERG channel. From the text: In cardiomyocytes, inhibition of the delayed rectifier potassium current (IKr) channel protein encoded by the human Ether-a-go-go Related Gene (hERG) is the most important mechanism by which drugs lead to prolongation of the QT interval. hERG is characterized by a specific molecular structure, which allows it to be inhibited by different structures, leading to severe arrhythmias. Statistically, 25-40% of lead compounds show varying degrees of hERG-related toxicity. Therefore, early evaluation of the effects of compounds on hERG is crucial in the drug development process.
The inhibition rate of compounds on hERG channels was examined by manual membrane clamp technique on HEK293 cell line which is stably expressing hERG ion channels.
On the technique in general: The hERG channel carries a current that helps repolarise heart muscle cells.

The next data set has as its target histamine H3 receptor (Homo sapiens, UniProt Q9Y5N1). Briefly: FLPPR assay, antagonistic activity on histamine H3 receptor. The format is cell-based. As to conditions: for inhibition at 0.005 µM: read-out: % Inh-AVERAGE @ 5 nM; for inhibition at 0.05 µM: read-out: % Inh-AVERAGE @ 50 nM. On the procedure: The FLPPR assay (NIH Assay Guidance Manual: HTS Assay Validation-Section 4.3. Analysis (Potency), htpps://www.ncbi.nlm.nih.gov/books/NBK83783) was performed using SUVN-G3031 as a positive control, and 21 target compounds were tested for the antagonistic activity target to histamine H3 receptor.

A further data set has as its system CCI model rats. As to the kind of experiment: Analgesic effect, chronic constriction injury (CCI) model, mechanical withdrawal threshold. The format is in vivo, SD rats. From the text:
Exposing the sciatic nerve on male SD rats' (180-200 g) right hind leg, in the anterior segment where the sciatic nerve is about to bifurcate, use sterile chromic gut thread (No. 4, 0.15 mm in diameter) to ligate 4 loops loosely, with each loop 1-2 mm apart, and suture the muscle and skin to establish the chronic constriction injury (CCI) model. In the sham-operated group, only the sciatic nerve was exposed without ligation, and the muscle and skin were sutured. The mechanical withdrawal threshold was detected by electronic analgesia meter (IITC-2391) on the 7th day for 2 consecutive days.
The CCI model rats with stabilized mechanical withdrawal thresholds were randomly divided into five groups, named model group (model), pregabalin group (Pre, 30 mg/kg), BIOS-B-12 compound group (3 mg/kg), BIOS-B-12 compound group (1 mg/kg), and BIOS-B-12 compound group (0.3 mg/kg), and were administered at 1 mL/100 g by gavage, and the same column of saline was gavaged in Sham an model group. The basic value was determined before drug administration, and the mechanical withdrawal thresholds were detected at 0.5 h, 1 h, 2 h, 4 h, 6 h, and 24 h after a single drug administration, and the p value was calculated by ANOVA with T-test.
The CCI model rats with stabilized mechanical withdrawal thresholds were randomly divided into three groups, named model group (model), pregabalin group (Pre, 30 mg/kg), and BIOS-B-14 compound group (1 mg/kg), and were administered at 1 mL/100 g by gavage, and the same column of saline was gavaged in Sham and model group. The basic value was determined before drug administration, and the mechanical withdrawal thresholds were detected at 0.5 h, 1 h, 2 h, 4 h, and 6 h after a single drug administration, and the p value was calculated by ANOVA with T-test.

Data set [1] deals with histamine-induced scratching. As to the kind of experiment: Antipruritic ability, histamine-induced scratching in mice. The format is in vivo, C57BL/6J mice. To be noted: BIOS-B-12 10 mg/kg 4 h, BIOS-B-18 10 mg/kg 1 h, Dex 3 mg/kg 1 h before histamine 500 μg/50 μL s.c.; observed 30 min; (Model-Compound)/Model×100%. Here is the method: The C57BL/6J male mice, with 6-8 weeks old, were randomly divided into model group (Model), BIOS-B-12 compound group (10 mg/kg), BIOS-B-18 compound group (10 mg/kg) and dexamethasone group (Dex, 3 mg/kg), with 7 animals in each group. The mice were injected subcutaneously with 500 μg/50 μL histamine at the back of the neck after the administration of dexamethasone for 1 h, BIOS-B-12 for 4 h, and BIOS-B-18 for 1 h, respectively, and immediately observed for 30 min. The number of scratched was recorded and the inhibition rate was calculated as (Model-Compound)/Model×100%.

histamine H3 receptor, sequence (Q9Y5N1 whole entry, species assumed): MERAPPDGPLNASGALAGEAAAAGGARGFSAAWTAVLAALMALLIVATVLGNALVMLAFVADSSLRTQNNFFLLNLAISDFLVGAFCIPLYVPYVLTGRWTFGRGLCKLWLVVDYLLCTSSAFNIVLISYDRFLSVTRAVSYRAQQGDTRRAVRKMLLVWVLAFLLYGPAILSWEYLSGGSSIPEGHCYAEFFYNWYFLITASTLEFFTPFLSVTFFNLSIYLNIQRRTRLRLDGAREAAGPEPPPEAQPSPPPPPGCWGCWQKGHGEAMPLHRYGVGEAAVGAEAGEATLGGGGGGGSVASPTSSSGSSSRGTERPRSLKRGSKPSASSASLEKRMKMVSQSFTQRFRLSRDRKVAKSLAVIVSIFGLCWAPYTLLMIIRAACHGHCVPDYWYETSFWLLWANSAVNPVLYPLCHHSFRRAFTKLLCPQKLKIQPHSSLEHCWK
hERG channel, sequence (Q12809 whole entry): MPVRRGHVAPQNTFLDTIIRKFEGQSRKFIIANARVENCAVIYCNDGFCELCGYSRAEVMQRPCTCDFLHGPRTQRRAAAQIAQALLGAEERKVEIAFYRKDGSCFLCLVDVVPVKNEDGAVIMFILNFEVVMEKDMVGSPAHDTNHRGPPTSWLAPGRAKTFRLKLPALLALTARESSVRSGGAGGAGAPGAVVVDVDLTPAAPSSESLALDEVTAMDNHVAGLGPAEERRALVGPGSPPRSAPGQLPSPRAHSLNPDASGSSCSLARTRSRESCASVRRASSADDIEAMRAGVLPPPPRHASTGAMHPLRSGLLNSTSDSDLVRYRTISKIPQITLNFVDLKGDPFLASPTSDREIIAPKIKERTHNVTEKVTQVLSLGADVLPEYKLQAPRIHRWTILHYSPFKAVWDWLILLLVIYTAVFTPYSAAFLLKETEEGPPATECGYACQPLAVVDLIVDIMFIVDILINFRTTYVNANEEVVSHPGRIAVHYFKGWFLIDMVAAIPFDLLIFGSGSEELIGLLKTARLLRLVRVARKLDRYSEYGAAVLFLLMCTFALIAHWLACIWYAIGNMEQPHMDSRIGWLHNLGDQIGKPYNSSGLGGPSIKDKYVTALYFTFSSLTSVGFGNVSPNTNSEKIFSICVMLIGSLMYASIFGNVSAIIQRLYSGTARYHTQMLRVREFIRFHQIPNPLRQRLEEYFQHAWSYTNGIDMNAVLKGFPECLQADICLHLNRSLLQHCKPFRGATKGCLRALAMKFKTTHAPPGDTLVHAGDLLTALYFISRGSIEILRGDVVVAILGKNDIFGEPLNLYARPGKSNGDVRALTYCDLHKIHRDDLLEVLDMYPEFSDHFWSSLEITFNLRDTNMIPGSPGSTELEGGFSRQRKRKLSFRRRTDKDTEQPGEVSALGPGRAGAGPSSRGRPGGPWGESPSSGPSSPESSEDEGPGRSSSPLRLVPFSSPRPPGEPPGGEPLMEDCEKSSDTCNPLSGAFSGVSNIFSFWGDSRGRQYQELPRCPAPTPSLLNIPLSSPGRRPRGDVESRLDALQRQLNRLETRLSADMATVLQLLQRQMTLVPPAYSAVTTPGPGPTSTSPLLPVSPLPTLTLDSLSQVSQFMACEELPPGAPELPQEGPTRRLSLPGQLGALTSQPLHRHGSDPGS

Consider `O=C(CN1CCOCC1)Nc1ccc(OC2CC(N3CCCCC3)C2)cc1` (stereo not shown) [BIOS-B-1, 2-morpholino-N-(4-(3-(piperidin-1-yl)cyclobutoxy)phenyl)acetamide], for which the inhibition at 10 µM on hERG channel came to 8.54%. Further, at histamine H3 receptor, the inhibition at 0.005 µM is 91.7% and the inhibition at 0.05 µM was found to be 100%.

As for `C[C@@H]1CCCN1CC(=O)Nc1ccc(OC2CC(N3CCCCC3)C2)cc1` (stereo partly drawn) [BIOS-B-2, (R)-2-(2-methylpyrrolidin-1-yl)-N-(4-(3-(piperidin-1-yl)cyclobutoxy)phenyl)acetamide], at histamine H3 receptor, the inhibition at 0.005 µM was 100% and the inhibition at 0.05 µM stood at 100%.

In the case of `O=C(CN1CCCCC1)Nc1ccc(OC2CC(N3CCCCC3)C2)cc1` (stereo not shown) [BIOS-B-3, 2-(piperidin-1-yl)-N-(4-(3-(piperidin-1-yl)cyclobutoxy)phenyl)acetamide], at histamine H3 receptor, the inhibition at 0.005 µM is 95.6% and the inhibition at 0.05 µM was 99.4%.

On to `CN1CCCN(CC(=O)Nc2ccc(OC3CC(N4CCCCC4)C3)cc2)CC1` (stereo not shown) [BIOS-B-4, 2-(4-methyl-1,4-diazepan-1-yl)-N-(4-(3-(piperidin-1-yl)cyclobutoxy)phenyl)acetamide], for which, on histamine H3 receptor, the inhibition at 0.005 µM amounted to 101% and the inhibition at 0.05 µM turned out to be 100%.

Consider `O=C(CN1CCC(F)(F)CC1)Nc1ccc(OC2CC(N3CCCCC3)C2)cc1` (stereo not shown) [BIOS-B-5, 2-(4,4-difluoropiperidin-1-yl)-N-(4-(3-(piperidin-1-yl)cyclobutoxy)phenyl)acetamide], for which, at histamine H3 receptor, the inhibition at 0.005 µM is 98.9% and the inhibition at 0.05 µM came to 99.9%.

With `O=C(CN1CCC(O)CC1)Nc1ccc(OC2CC(N3CCCCC3)C2)cc1` (stereo not shown) [BIOS-B-6, 2-(4-hydroxypiperidin-1-yl)-N-(4-(3-(piperidin-1-yl)cyclobutoxy)phenyl)acetamide], on histamine H3 receptor, the inhibition at 0.005 µM amounted to 103% and the inhibition at 0.05 µM was found to be 99.8%.

In the case of `O=C(CN1CCSCC1)Nc1ccc(OC2CC(N3CCCCC3)C2)cc1` (stereo not shown) [BIOS-B-7, N-(4-(3-(piperidin-1-yl)cyclobutoxy)phenyl)-2-thiomorpholinoacetamide], on histamine H3 receptor, the inhibition at 0.005 µM came to 88.3% and the inhibition at 0.05 µM is 99.5%.

Take `O=C(CN1CCCC(CCO)C1)Nc1ccc(OC2CC(N3CCCCC3)C2)cc1` (stereo not shown) [BIOS-B-8, 2-(3-(2-hydroxyethyl)piperidin-1-yl)-N-(4-(3-(piperidin-1-yl)cyclobutoxy)phenyl)acetamide]: the inhibition at 10 µM against hERG channel worked out at 4.82%. Further, on histamine H3 receptor, the inhibition at 0.005 µM was determined as 101% and the inhibition at 0.05 µM came out at 99.5%.

With `O=C(CN1CCNCC1)Nc1ccc(OC2CC(N3CCCCC3)C2)cc1` (stereo not shown) [BIOS-B-9, 2-(piperazin-1-yl)-N-(4-(3-(piperidin-1-yl)cyclobutoxy)phenyl)acetamide], the inhibition at 10 µM against hERG channel was -1.03%. For the same compound, at histamine H3 receptor, the inhibition at 0.005 µM came to 101% and the inhibition at 0.05 µM is 99.6%.

Take `CN1CCN(CC(=O)Nc2ccc(OC3CC(N4CCCCC4)C3)cc2)CC1` (stereo not shown) [BIOS-B-10, 2-(4-methylpiperazin-1-yl)-N-(4-(3-(piperidin-1-yl)cyclobutoxy)phenyl)acetamide]: the inhibition at 10 µM on hERG channel was -1.26%. Also, on histamine H3 receptor, the inhibition at 0.005 µM is 99.5% and the inhibition at 0.05 µM turned out to be 97.5%.

As for `O=C(CN1CCCC(O)C1)Nc1ccc(OC2CC(N3CCCCC3)C2)cc1` (stereo not shown) [BIOS-B-11, 2-(3-hydroxypiperidin-1-yl)-N-(4-(3-(piperidin-1-yl)cyclobutoxy)phenyl)acetamide], the inhibition at 10 µM at hERG channel was 2.96%. On histamine H3 receptor, the inhibition at 0.005 µM was 97% and the inhibition at 0.05 µM stood at 99.4%.

With `O=C(NCCN1CCOCC1)Nc1ccc(OC2CC(N3CCCCC3)C2)cc1` (stereo not shown) [BIOS-B-13, 1-(2-morpholinoethyl)-3-(4-(3-(piperidin-1-yl)cyclobutoxy)phenyl)urea], the inhibition at 10 µM against hERG channel was -1.47%. Further, at histamine H3 receptor, the inhibition at 0.005 µM came to 99.6% and the inhibition at 0.05 µM was found to be 99.8%.

Take `C[C@@H]1CCCN1CCNC(=O)Nc1ccc(OC2CC(N3CCCCC3)C2)cc1` (stereo partly drawn) [BIOS-B-14, (R)-1-(2-(2-methylpyrrolidin-1-yl)ethyl)-3-(4-(3-(piperidin-1-yl)cyclobutoxy)phenyl)urea]: the “mechanical withdrawal thresholds vs model group” value with CCI model rats (1 mg/kg single dose by gavage, 0.5 h to 5 h after administration, P<0.05, FIG. 2) is reported as “significantly increased”. The “period of analgesia time compared with pregabalin” value in the data set on CCI model rats (BIOS-B-14 1 mg/kg vs pregabalin 30 mg/kg, FIG. 2 study) is given as “longer period of analgesia time than that of pregabalin”. Further, the inhibition at 10 µM on hERG channel turned out to be 0.17%. Moreover, on histamine H3 receptor, the inhibition at 0.005 µM was 100% and the inhibition at 0.05 µM worked out at 101%.

In the case of `O=C(NCCN1CCCCC1)Nc1ccc(OC2CC(N3CCCCC3)C2)cc1` (stereo not shown) [BIOS-B-15, 1-(4-(3-(piperidin-1-yl)cyclobutoxy)phenyl)-3-(2-(piperidin-1-yl)ethyl)urea], the inhibition at 10 µM against hERG channel was -0.12%. In addition, at histamine H3 receptor, the inhibition at 0.005 µM stood at 99% and the inhibition at 0.05 µM turned out to be 100%.

As for `CN1CCCN(CCNC(=O)Nc2ccc(OC3CC(N4CCCCC4)C3)cc2)CC1` (stereo not shown) [BIOS-B-17, 1-(2-(4-methyl-1,4-diazepan-1-yl)ethyl)-3-(4-(3-(piperidin-1-yl)cyclobutoxy)phenyl)urea], at hERG channel, the inhibition at 10 µM came out at 1.52%. For the same compound, at histamine H3 receptor, the inhibition at 0.005 µM amounted to 101% and the inhibition at 0.05 µM is 99.4%.

`O=C(NCCN1CCC(O)CC1)Nc1ccc(OC2CC(N3CCCCC3)C2)cc1` (stereo not shown) [BIOS-B-19, 1-(2-(4-hydroxypiperidin-1-yl)ethyl)-3-(4-(3-(piperidin-1-yl)cyclobutoxy)phenyl)urea]: the inhibition at 10 µM on hERG channel was -0.09%. In addition, at histamine H3 receptor, the inhibition at 0.005 µM came out at 101% and the inhibition at 0.05 µM was 101%.

With `O=C(NCCN1CCSCC1)Nc1ccc(OC2CC(N3CCCCC3)C2)cc1` (stereo not shown) [BIOS-B-20, 1-(4-(3-(piperidin-1-yl)cyclobutoxy)phenyl)-3-(2-thiomorpholinoethyl)urea], at hERG channel, the inhibition at 10 µM was -0.66%. Moreover, at histamine H3 receptor, the inhibition at 0.005 µM was 100% and the inhibition at 0.05 µM was 101%.

Consider `CN1CCN(CCNC(=O)Nc2ccc(OC3CC(N4CCCCC4)C3)cc2)CC1` (stereo not shown) [BIOS-B-22, 1-(2-(4-methylpiperazin-1-yl)ethyl)-3-(4-(3-(piperidin-1-yl)cyclobutoxy)phenyl)urea], for which the inhibition at 10 µM at hERG channel was -2.43%. Moreover, at histamine H3 receptor, the inhibition at 0.005 µM is 101% and the inhibition at 0.05 µM amounted to 99.5%.

On to `O=C(NCCN1CCCC(O)C1)Nc1ccc(OC2CC(N3CCCCC3)C2)cc1` (stereo not shown) [BIOS-B-23, 1-(2-(3-hydroxypiperidin-1-yl)ethyl)-3-(4-(3-(piperidin-1-yl)cyclobutoxy)phenyl)urea], for which, at hERG channel, the inhibition at 10 µM was 0.37%. At histamine H3 receptor, the inhibition at 0.005 µM came to 100% and the inhibition at 0.05 µM was 100%.

On to `C[C@@H]1C[C@H]2[C@@H]3CCC4=CC(=O)C=C[C@]4(C)[C@@]3(F)[C@@H](O)C[C@]2(C)[C@@]1(O)C(=O)CO` [Dex, dexamethasone, reference compound], for which the “Inhibition Rate (%) of number of scratches” value in data set [1] was 29.3%.

Turning to `CC(C)C[C@H](CN)CC(=O)O` [Pregabalin, pregabalin, reference compound], the “mechanical withdrawal thresholds vs model group” value in the data set on CCI model rats (30 mg/kg single dose by gavage, only from 0.5 h to 1 h after administration, FIG. 2 study) is recorded as “significantly different”; in the data set on CCI model rats (30 mg/kg single dose by gavage, only from 0.5 h to 2 h after administration, FIG. 1 study), “significantly different”.

With `O=C(CN1CCOCC1)Nc1ccc(OC2CCN(C3CCC3)CC2)cc1` [SUVN-G3031, Samelisant, reference compound], at histamine H3 receptor, the inhibition at 0.005 µM came to 57.8% and the inhibition at 0.05 µM was found to be 85.8%.
